# Laboratory results published in article PMC9005681, “Use of AD Informer Set compounds to explore validity of novel targets in Alzheimer's disease pathology” (Alzheimer's & Dementia : Translational Research & Clinical …, 2022).
# Legend:
# Test in all cases: PDSP GPCR panel primary binding assays at 10 μM
# [1] = biological target: T1, cloned human or rodent CNS receptors, channels, and transporters (PDSP panel) (Homo sapiens, UniProt P34969); details: primary assay
# T1 construct: expressed in transfected cells
# T1 sequence (P34969 whole entry): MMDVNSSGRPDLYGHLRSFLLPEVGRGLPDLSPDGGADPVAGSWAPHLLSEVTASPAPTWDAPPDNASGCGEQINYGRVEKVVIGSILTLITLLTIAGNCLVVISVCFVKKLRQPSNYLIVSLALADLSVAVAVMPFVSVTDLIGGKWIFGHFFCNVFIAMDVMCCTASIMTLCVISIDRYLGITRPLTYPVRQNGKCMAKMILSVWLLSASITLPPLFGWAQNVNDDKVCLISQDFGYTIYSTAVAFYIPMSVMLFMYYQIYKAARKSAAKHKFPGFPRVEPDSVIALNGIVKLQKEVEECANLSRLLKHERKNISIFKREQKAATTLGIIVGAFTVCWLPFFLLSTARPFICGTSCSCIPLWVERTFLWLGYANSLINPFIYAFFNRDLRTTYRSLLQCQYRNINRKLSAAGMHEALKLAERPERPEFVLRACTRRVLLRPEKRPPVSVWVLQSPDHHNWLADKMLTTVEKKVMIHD
# How it was run: (§1)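 PDSP panel of 46–47 cloned human or rodent CNS receptors, channels and transporters; radioligand displacement by compound at 10 μM, in quadruplicate. Where average displacement exceeded 50%, secondary binding followed as 11-point dose-response in triplicate (none for H3, PBR or GABAA).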
# [2] = biological target: T2, cloned human or rodent CNS receptors, channels, and transporters (PDSP panel) (Homo sapiens, UniProt P08172); details: M2, primary assay; for Mean %: mean inhibition; for Inhibition 1: replicate 1; for Inhibition 2: replicate 2; for Inhibition 3: replicate 3; for Inhibition 4: replicate 4
# T2 construct: expressed in transfected cells
# T2 sequence (P08172 1-466): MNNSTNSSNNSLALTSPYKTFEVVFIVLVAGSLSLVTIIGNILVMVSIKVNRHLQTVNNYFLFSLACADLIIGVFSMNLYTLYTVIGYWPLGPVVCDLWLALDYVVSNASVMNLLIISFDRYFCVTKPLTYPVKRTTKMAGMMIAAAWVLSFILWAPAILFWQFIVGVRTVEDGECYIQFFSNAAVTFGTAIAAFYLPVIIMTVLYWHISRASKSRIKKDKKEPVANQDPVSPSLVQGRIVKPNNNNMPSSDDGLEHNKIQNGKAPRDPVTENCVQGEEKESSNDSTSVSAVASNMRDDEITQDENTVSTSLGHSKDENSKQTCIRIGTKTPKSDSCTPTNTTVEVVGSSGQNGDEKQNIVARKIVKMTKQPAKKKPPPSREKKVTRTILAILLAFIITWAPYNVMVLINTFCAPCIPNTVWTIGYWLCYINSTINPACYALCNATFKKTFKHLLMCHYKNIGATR
# How it was run: as §1
# [3] = biological target: T3, cloned human or rodent CNS receptors, channels, and transporters (PDSP panel) (Homo sapiens, UniProt P28335); details: primary assay
# T3 construct: expressed in transfected cells
# T3 sequence (P28335 33-458): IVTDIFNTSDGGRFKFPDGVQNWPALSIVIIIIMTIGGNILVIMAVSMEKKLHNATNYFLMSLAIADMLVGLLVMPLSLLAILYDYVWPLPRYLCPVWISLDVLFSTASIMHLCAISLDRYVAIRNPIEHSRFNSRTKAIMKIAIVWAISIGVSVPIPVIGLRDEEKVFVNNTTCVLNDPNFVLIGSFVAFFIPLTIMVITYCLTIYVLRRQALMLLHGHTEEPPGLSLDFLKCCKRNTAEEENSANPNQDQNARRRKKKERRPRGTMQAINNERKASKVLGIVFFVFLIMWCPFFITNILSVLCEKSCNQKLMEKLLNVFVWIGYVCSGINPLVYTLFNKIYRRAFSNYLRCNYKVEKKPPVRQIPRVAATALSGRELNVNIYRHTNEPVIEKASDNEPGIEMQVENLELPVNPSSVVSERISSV
# How it was run: as §1
# [4] = biological target: T4, cloned human or rodent CNS receptors, channels, and transporters (PDSP panel) (Homo sapiens, UniProt P47898); details: primary assay
# T4 construct: expressed in transfected cells
# T4 sequence (P47898 whole entry): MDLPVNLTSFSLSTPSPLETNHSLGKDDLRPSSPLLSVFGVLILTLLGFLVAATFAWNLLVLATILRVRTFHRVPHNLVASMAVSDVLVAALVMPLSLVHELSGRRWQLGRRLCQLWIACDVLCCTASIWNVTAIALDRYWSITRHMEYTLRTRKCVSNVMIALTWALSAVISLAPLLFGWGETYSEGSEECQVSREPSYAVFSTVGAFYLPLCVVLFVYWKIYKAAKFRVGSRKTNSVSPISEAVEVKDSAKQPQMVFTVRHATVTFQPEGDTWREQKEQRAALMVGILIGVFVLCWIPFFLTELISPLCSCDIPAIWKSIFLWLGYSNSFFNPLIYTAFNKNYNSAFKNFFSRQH
# How it was run: as §1
# [5] = biological target: T5, cloned human or rodent CNS receptors, channels, and transporters (PDSP panel) (Homo sapiens, UniProt P21728); details: primary assay
# T5 construct: expressed in transfected cells
# T5 sequence (P21728 whole entry): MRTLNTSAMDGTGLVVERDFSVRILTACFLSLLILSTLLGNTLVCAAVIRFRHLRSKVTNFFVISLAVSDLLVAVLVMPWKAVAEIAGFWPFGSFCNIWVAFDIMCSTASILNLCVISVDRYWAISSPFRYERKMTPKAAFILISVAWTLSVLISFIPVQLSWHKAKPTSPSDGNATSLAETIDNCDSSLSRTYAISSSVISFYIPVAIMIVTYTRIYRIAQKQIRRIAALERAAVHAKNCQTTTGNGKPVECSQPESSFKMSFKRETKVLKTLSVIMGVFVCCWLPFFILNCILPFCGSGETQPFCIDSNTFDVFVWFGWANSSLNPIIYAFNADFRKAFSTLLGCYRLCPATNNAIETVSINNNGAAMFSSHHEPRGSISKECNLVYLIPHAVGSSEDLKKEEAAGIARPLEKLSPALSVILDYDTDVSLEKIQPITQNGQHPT
# How it was run: as §1
# [6] = biological target: T6, cloned human or rodent CNS receptors, channels, and transporters (PDSP panel) (Homo sapiens, UniProt P46098); details: primary assay
# T6 construct: expressed in transfected cells
# T6 sequence (P46098 24-478): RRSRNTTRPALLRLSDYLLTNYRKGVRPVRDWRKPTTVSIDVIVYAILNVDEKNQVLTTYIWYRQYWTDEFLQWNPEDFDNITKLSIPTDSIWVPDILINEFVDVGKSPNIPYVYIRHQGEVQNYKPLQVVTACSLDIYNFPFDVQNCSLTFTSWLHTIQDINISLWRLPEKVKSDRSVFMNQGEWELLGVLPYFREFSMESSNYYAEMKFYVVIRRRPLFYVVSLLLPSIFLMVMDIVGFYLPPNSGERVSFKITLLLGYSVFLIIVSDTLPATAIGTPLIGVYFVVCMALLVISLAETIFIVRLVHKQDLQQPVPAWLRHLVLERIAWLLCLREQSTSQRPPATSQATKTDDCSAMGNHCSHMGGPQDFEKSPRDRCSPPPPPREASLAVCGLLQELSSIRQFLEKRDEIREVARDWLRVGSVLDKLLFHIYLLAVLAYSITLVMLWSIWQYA
# How it was run: as §1
# [7] = biological target: T7, cloned human or rodent CNS receptors, channels, and transporters (PDSP panel) (Homo sapiens, UniProt Q01959); details: DAT, primary assay; for Mean %: mean inhibition; for Inhibition 1: replicate 1; for Inhibition 2: replicate 2; for Inhibition 3: replicate 3; for Inhibition 4: replicate 4
# T7 construct: expressed in transfected cells
# T7 sequence (Q01959 whole entry): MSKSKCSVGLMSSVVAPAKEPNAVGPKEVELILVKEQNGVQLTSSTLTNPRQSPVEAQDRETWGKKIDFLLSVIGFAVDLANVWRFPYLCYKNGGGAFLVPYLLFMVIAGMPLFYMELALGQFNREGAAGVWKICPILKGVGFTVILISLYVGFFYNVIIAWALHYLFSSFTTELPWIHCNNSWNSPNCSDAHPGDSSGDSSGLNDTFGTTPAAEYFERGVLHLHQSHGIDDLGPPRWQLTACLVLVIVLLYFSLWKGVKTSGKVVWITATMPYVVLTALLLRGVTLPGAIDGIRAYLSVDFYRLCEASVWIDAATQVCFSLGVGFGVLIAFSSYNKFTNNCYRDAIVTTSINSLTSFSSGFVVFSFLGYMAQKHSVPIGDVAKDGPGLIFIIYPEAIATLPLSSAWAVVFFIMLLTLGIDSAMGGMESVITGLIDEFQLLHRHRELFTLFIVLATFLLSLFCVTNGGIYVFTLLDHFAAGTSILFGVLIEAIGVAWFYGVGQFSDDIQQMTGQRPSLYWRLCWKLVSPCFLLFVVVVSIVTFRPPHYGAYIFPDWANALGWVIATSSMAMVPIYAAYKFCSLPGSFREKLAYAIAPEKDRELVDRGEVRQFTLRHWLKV
# How it was run: as §1
# [8] = biological target: T8, cloned human or rodent CNS receptors, channels, and transporters (PDSP panel) (Homo sapiens, UniProt P41145); details: primary assay
# T8 construct: expressed in transfected cells
# T8 sequence (P41145 whole entry): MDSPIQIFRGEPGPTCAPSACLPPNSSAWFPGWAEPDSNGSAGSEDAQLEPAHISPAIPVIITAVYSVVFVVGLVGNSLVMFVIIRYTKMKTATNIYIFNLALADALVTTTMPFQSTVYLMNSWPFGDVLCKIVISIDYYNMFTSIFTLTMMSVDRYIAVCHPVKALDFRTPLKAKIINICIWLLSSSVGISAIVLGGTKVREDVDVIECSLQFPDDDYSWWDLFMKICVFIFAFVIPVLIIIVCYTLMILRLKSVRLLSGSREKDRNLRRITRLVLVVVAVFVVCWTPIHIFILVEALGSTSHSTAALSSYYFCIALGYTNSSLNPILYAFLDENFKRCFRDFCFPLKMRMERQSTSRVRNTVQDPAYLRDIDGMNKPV
# How it was run: as §1
compound,measurement,setting,value
MDL 28170 [UNC10302675A],Mean %,"[1]; 5-HT7A, mean inhibition",12.48%
same,Inhibition 1,"[1]; 5-HT7A, replicate 1",4.73%
same,Inhibition 2,"[1]; 5-HT7A, replicate 2",10.46%
same,Inhibition 3,"[1]; 5-HT7A, replicate 3",19.29%
same,Inhibition 4,"[1]; 5-HT7A, replicate 4",15.42%
same,Mean %,[2],1.32%
same,Inhibition 1,[2],-8.82%
same,Inhibition 2,[2],-11.77%
same,Inhibition 3,[2],0.03%
same,Inhibition 4,[2],25.84%
same,Mean %,"[3]; 5-HT2C, mean inhibition",-9.69%
same,Inhibition 1,"[3]; 5-HT2C, replicate 1",-16.2%
same,Inhibition 2,"[3]; 5-HT2C, replicate 2",-15.21%
same,Inhibition 3,"[3]; 5-HT2C, replicate 3",9.82%
same,Inhibition 4,"[3]; 5-HT2C, replicate 4",-17.18%
same,Mean %,"[4]; 5-HT5A, mean inhibition",-1.67%
same,Inhibition 1,"[4]; 5-HT5A, replicate 1",-0.61%
same,Inhibition 2,"[4]; 5-HT5A, replicate 2",-2.73%
same,Inhibition 3,"[4]; 5-HT5A, replicate 3",-12.06%
same,Inhibition 4,"[4]; 5-HT5A, replicate 4",8.72%
same,Mean %,"[5]; D1, mean inhibition",-0.08%
same,Inhibition 1,"[5]; D1, replicate 1",13.68%
same,Inhibition 2,"[5]; D1, replicate 2",11.74%
same,Inhibition 3,"[5]; D1, replicate 3",-15.62%
same,Inhibition 4,"[5]; D1, replicate 4",-10.12%
same,Mean %,"[6]; 5-HT3, mean inhibition",-2.62%
same,Inhibition 1,"[6]; 5-HT3, replicate 1",-0.93%
same,Inhibition 2,"[6]; 5-HT3, replicate 2",2.95%
same,Inhibition 3,"[6]; 5-HT3, replicate 3",-29.22%
same,Inhibition 4,"[6]; 5-HT3, replicate 4",16.71%
same,Mean %,[7],35.54%
same,Inhibition 1,[7],41.81%
same,Inhibition 2,[7],27.44%
same,Inhibition 3,[7],32.41%
same,Inhibition 4,[7],40.51%
same,Mean %,"[8]; KOR, mean inhibition",8.82%
same,Inhibition 1,"[8]; KOR, replicate 1",3.47%
same,Inhibition 2,"[8]; KOR, replicate 2",2.13%
same,Inhibition 3,"[8]; KOR, replicate 3",10.86%
same,Inhibition 4,"[8]; KOR, replicate 4",18.81%
"O=c1oc2ccccc2cc1-c1cn2cc(Cc3ccc(F)cc3)sc2n1 [UNC10302680A, iMDK]",Inhibition 1,"[1]; Receptor 5-HT7A, 10 μM",13.87%
same,Inhibition 2,"[1]; Receptor 5-HT7A, 10 μM",2.87%
same,Inhibition 3,"[1]; Receptor 5-HT7A, 10 μM",-0.54%
same,Inhibition 4,"[1]; Receptor 5-HT7A, 10 μM",21.31%
same,Mean %,"[1]; Receptor 5-HT7A, 10 μM, mean of Inhibition 1-4",9.38%
same,Mean %,[2],-8.2%
same,Inhibition 1,[2],-12.5%
same,Inhibition 2,[2],-5.38%
same,Inhibition 3,[2],-3.9%
same,Inhibition 4,[2],-11.03%
same,Inhibition 1,"[3]; Receptor 5-HT2C, 10 μM",16.2%
same,Inhibition 2,"[3]; Receptor 5-HT2C, 10 μM",-2.94%
same,Inhibition 3,"[3]; Receptor 5-HT2C, 10 μM",-21.1%
same,Inhibition 4,"[3]; Receptor 5-HT2C, 10 μM",-2.94%
same,Mean %,"[3]; Receptor 5-HT2C, 10 μM, mean of Inhibition 1-4",-2.7%
same,Inhibition 1,"[4]; Receptor 5-HT5A, 10 μM",-14.99%
same,Inhibition 2,"[4]; Receptor 5-HT5A, 10 μM",-18.16%
same,Inhibition 3,"[4]; Receptor 5-HT5A, 10 μM",-6.28%
same,Inhibition 4,"[4]; Receptor 5-HT5A, 10 μM",-0.35%
same,Mean %,"[4]; Receptor 5-HT5A, 10 μM, mean of Inhibition 1-4",-9.95%
same,Inhibition 1,"[5]; Receptor D1, 10 μM",5.91%
same,Inhibition 2,"[5]; Receptor D1, 10 μM",9.31%
same,Inhibition 3,"[5]; Receptor D1, 10 μM",-0.89%
same,Inhibition 4,"[5]; Receptor D1, 10 μM",-9.8%
same,Mean %,"[5]; Receptor D1, 10 μM, mean of Inhibition 1-4",1.13%
same,Inhibition 1,"[6]; Receptor 5-HT3, 10 μM",1.94%
same,Inhibition 2,"[6]; Receptor 5-HT3, 10 μM",26.27%
same,Inhibition 3,"[6]; Receptor 5-HT3, 10 μM",17.25%
same,Inhibition 4,"[6]; Receptor 5-HT3, 10 μM",14.61%
same,Mean %,"[6]; Receptor 5-HT3, 10 μM, mean of Inhibition 1-4",15.02%
same,Mean %,[7],24.58%
same,Inhibition 1,[7],19.55%
same,Inhibition 2,[7],22.26%
same,Inhibition 3,[7],29.6%
same,Inhibition 4,[7],26.9%
same,Inhibition 1,"[8]; Receptor KOR, 10 μM",-23.4%
same,Inhibition 2,"[8]; Receptor KOR, 10 μM",-19.7%
same,Inhibition 3,"[8]; Receptor KOR, 10 μM",-5.6%
same,Inhibition 4,"[8]; Receptor KOR, 10 μM",-21.38%
same,Mean %,"[8]; Receptor KOR, 10 μM, mean of Inhibition 1-4",-17.52%
